Experimental data from article doi:10.1101/2024.03.18.584035v1 (biorxiv, 2024).

Target: T1, olTRPM2 (Oryzias latipes, UniProt H2MNZ1)
T1 sequence (H2MNZ1 1-1431): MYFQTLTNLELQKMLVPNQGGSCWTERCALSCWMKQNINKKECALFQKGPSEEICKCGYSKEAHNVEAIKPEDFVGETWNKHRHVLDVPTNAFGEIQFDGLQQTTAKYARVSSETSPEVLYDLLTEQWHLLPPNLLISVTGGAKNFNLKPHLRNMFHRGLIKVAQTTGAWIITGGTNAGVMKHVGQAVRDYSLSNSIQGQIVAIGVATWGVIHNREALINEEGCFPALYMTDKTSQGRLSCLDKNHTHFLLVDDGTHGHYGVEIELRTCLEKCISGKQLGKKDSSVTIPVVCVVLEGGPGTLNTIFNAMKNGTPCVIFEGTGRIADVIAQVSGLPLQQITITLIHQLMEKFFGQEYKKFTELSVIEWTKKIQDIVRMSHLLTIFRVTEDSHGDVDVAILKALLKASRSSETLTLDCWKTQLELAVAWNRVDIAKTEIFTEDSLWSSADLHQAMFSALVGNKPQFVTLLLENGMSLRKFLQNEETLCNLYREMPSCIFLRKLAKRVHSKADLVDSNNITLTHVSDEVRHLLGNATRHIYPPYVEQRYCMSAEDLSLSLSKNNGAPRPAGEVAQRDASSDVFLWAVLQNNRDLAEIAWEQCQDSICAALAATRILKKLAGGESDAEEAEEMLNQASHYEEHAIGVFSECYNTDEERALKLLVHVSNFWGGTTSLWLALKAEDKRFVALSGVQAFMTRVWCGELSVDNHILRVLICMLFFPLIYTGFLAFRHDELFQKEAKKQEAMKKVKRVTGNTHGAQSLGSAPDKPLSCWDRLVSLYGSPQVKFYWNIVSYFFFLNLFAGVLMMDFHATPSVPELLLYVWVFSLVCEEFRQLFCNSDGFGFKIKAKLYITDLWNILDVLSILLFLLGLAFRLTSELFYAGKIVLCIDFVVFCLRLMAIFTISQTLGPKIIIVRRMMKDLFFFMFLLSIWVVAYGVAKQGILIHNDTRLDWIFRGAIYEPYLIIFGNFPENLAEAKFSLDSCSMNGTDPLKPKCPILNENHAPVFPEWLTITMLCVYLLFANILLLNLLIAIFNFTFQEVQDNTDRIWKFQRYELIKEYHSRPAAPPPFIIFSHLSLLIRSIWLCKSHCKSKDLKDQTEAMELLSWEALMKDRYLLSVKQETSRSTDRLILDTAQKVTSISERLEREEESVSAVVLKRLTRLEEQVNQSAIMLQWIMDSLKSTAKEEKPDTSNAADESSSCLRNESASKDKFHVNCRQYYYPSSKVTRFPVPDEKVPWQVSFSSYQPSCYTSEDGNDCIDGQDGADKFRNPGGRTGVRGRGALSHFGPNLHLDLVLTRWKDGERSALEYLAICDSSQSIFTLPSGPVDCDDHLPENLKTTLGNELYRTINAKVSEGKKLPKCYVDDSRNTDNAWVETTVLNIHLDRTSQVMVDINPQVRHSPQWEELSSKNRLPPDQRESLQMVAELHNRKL
Assay: whole-cell patch clamp, HEK293T
Assay type: cell-based
Conditions: intracellular ADPR; room temperature; pH 7.4; -80 mV; agonist

- EC50: 1.1 ± 0.8 µM
Structure (SMILES): Nc1ncnc2c1ncn2[C@@H]1O[C@H](COP(=O)(O)OP(=O)(O)OC[C@H]2OC(O)[C@H](O)[C@@H]2O)[C@@H](O)[C@H]1O (stereo partly shown) [ADPR, adenosine diphosphate ribose]
